Results on 8 compounds are retold here after EP3587416A1, “2-OXOPIPERIDIN-3-YL DERIVATIVES AND USE THEREOF” (Institut Univ. de Ciència i Tecnologia, S.A., priority 2018, dated 2020).

“And” between values parts separate entries of the source, which are not always exact repeats. Identical values can stand only once.

The target in test [1] is T1, CNA-CF-PRIEIT interaction (Homo sapiens, UniProt Q08209).
T1 construct: human CNAα (amino acids 2-347)
The experiment in a line: Fluorescence polarization assay, disruption of the CNA-CF-PRIEIT interaction (Example 20). Conditions: 50 µM compound, 5 µM human CNAα, 30 nM CF-PRIEIT; mean of triplicates. The format is binding. Here is the method:
Compounds were analyzed for their potential to disrupt the interaction between the human catalytic domain of the calcineurin Aα subunit (CNAα) and the NFATc2-derived PRIEIT peptide. For this purpose we used Flourescence Polarization (FP) technique described in Mulero et al, 2009 (J. Biol. Chem.284:9394-9401). Briefly, to identify disruptors of the CNA-PRIEIT interaction, 5 µM of human CNAα (amino acids 2-347) is preincubated with 50 µM of each hit compound in OptiPlate black 384-well flat-bottom plates (PerkinElmer Life Sciences) for 15 min at room temperature. Then, carboxyfluorescein (CF)-tagged NFATc2-derived PRIEIT peptide (CF-PRIEIT, 30 nM) is added to each well and incubated for 15 more min at room temperature. Each compound has been analyzed once with triplicates. FP measurements were performed using a Victor™ X5 2030 Multilabel Reader (PerkinElmer Life Sciences) with excitation and emission wavelengths of 485 nm and 535 nm, respectively. The fluorescent polarization of the free CF-peptide was considered 0% binding and the binding of CNA to the CF-PRIEIT peptide as 100% binding. Accordingly, the capacity of the compound to disrupt CNA-CF-PRIEIT interaction was measured. None of them displace the CF-PRIEIT peptide from the CNA-PRIEIT interaction (Table 3). Interaction disruption values are less than 30%. […] Data is given as mean ± standard deviation (SD).
Background: Fluorescence polarisation rises when a labelled molecule tumbles more slowly, as on binding a larger partner.

The subject of test [2] is NFATc activation in HEK 293T cells. The experiment in a line: 3xNFAT-luc dual-luciferase reporter assay of NFATc activation. The format is cell-based, human. Conditions: Io/PMA/CaCl2 stimulation, inhibition at least at 100, 50 and 20 µM (Figure 1). On the procedure: • Figure 1. Effect of INK compounds on NFATc activation in HEK 293T cells. Cells were transfected with 3xNFAT-luc reporter gene, treated with each compound at 0 µM / 0.02 µM / 0.2 µM / 1 µM / 5 µM/ 20 µM / 50 µM /100 µM (increasing concentrations of the compounds are represented in the graph from left to right) for 2 hours. Then, cells were calcium stimulated with ionomycin (1 µM), PMA (20 nM) and CaCl2 (10 mM) for 4 hours and luciferase activity was analyzed following the dual luciferase reporter assay manufacters' indications and a luminometer (Victor X5 plate reader form Perin-Elmer). […] CN activity towards the RII peptide was analyzed in the absence (positive control of CN activity) or in the presence of each compound at 50 µM, or of 50 µM of LxVP peptide (positive control of CN activity inhibition). […]
To determine the ffect of INK compounds on NFATc activation, HEK 293T cells were transfected with 3xNFAT-luc reporter gene and Renilla-luc plasmid as control of gene transfection. […] Then, cells were treated with compounds of formula (I) at several concentrations for 2 hours and light units analyzed following manufacture's protocol of the dual-luciferase reporter assay system (Figure 1, Functional effect of pair related structure compounds on NFATc activation).
(In general: A reporter such as luciferase makes a cellular process visible.)

Test [3] addresses T2, CN-PRIEIT interaction (Homo sapiens, UniProt Q08209).
T2 construct: recombinant human CNAD (amino acids 2-347) fused to glutathione S-transferase; GST (glutathione S-transferase); made in house; host or cells: bacteria
The experiment in a line: Fluorescence polarization competition binding assay, CF-SPRIEIT bound to CNA (Example 21). The conditions noted are these: 6 µM CNA, 30 nM CF-SPRIEIT, no competitor = 100%. On the procedure: INK compounds were analyzed for their ability to disrupt CN-PRIEIT interaction using a fluorescence polarization assay. This biochemical assay requires recombinant human CNAD (amino acids 2-347) fused to glutathione S-transferase (GST-CN), which was expressed and purified from bacteria, and a NFATc2-derived PRIEIT peptide labeled with carboxyfluorescein (CF), CF-PRIEIT. Competition binding assays of INK compounds on the interaction of CN with the CF-NFATc2-derived PRIEIT peptide were performed by fluorescence polarization. Briefly, 6 µM of CNA was incubated in the absence (positive control of interaction) or in the presence of 50 µM or 10 µM of competitor compound prior to addition of 30 nM of CF-SPRIEIT peptide. VIVIT peptide was included as positive control of interaction disruption ability. Data is represented as mean percentage of CF-SPRIEIT bound to CNA (± SEM) of 2 experiments performed in triplicates. Signal in the absence of competing peptide was considered as 100% of CF-SPRIEIT bound to CNA. Table 4: Functional effect of pair related structure compounds on NFATc activation

A word on the inhibition: it is the change of the read-out against control, counted positive when it falls.

T2 sequence (Q08209 2-347): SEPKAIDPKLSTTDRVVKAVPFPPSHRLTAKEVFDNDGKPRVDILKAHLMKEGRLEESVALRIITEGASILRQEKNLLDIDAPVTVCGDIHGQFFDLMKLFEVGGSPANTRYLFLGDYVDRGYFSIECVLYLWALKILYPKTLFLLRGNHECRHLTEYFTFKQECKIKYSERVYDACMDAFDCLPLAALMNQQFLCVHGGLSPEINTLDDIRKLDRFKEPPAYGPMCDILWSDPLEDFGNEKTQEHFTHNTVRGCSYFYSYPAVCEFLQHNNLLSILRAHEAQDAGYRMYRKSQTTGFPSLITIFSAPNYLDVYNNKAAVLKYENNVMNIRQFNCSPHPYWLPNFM
T1 sequence (Q08209 2-347): as above

Take `CCOC(=O)CN(C1CCCN(c2ccc(-c3ccccc3OC)cc2F)C1=O)S(=O)(=O)c1ccc(-c2ccccn2)s1` (stereo not shown) [IUCT-0469, Ethyl N-(1-(3-fluoro-2'-methoxy-[1,1'-biphenyl]-4-yl)-2-oxopiperidin-3-yl)-N-((5-(pyridin-2-yl)thiophen-2-yl)sulfonyl)glycinate]: the inhibition at 50 µM in test [1] came to 29.3%.
Consider `COc1ccccc1-c1ccc(N2CCCC(N(CC#N)S(=O)(=O)c3cc(Cl)c(Cl)s3)C2=O)c(F)c1` (stereo not shown) [IUCT-0465, 4,5-Dichloro-N-(cyanomethyl)-N-(1-(3-fluoro-2'-methoxy-[1,1'-biphenyl]-4-yl)-2-oxopiperidin-3-yl)thiophene-2-sulfonamide], for which the inhibition at 50 µM in test [1] was 13.8%.
Regarding `COc1ccccc1-c1ccc(N2CCCC(NS(=O)(=O)c3cc4ccccc4o3)C2=O)c(F)c1` (stereo not shown) [IUCT-0464, N-(1-(3-fluoro-2'-methoxy-[1,1'-biphenyl]-4-yl)-2-oxopiperidin-3-yl)benzofuran-2-sulfonamide], the NFATc activation entry in test [2] was “strongly inhibits”. Further, the “Relative interaction (%) Mean” value in test [3] (10 µM competitor) is 93,8%; in test [3] (50 µM competitor), 83,2%. Further, the “Relative interaction (%) Sample at 10 µM” value in test [3] (10 µM competitor, single replicate) was 96,8% and 92,3% and 92,4%. Besides, the “Relative interaction (%) Sample at 50 µM” value in test [3] (50 µM competitor, single replicate) was 79,0% and 87,7% and 82,9%. Moreover, the inhibition at 50 µM in test [1] was 25.8%.
Turning to `COc1ccccc1-c1ccc(N2CCCC(NS(=O)(=O)c3ccc4c(c3)OCO4)C2=O)c(F)c1` (stereo not shown) [IUCT-0462, N-(1-(3-fluoro-2'-methoxy-[1,1'-biphenyl]-4-yl)-2-oxopiperidin-3-yl)benzo[d][1,3]dioxole-5-sulfonamide], testing at 50 µM in test [1] gave an inhibition of 25.7%.
Still for that read-out and setting: with `COc1ccccc1-c1ccc(N2CCCC(NS(=O)(=O)c3c(C)noc3C)C2=O)c(F)c1` (stereo not shown) [IUCT-0461, N-(1-(3-fluoro-2'-methoxy-[1,1'-biphenyl]-4-yl)-2-oxopiperidin-3-yl)-3,5-dimethylisoxazole-4-sulfonamide] the figure was 11.1%; with `COc1ccccc1-c1ccc(N2CCCC(NS(=O)(=O)c3cc(Cl)c(Cl)s3)C2=O)c(F)c1` (stereo not shown) [IUCT-0460, 4,5-Dichloro-N-(1-(3-fluoro-2'-methoxy-[1,1'-biphenyl]-4-yl)-2-oxopiperidin-3-yl)thiophene-2-sulfonamide], 6.53%.
The same measure, in the same setting: to `CCOC(=O)CN(C1CCCN(c2ccc(-c3ccccc3OC)cc2F)C1=O)S(=O)(=O)c1ccc2c(c1)OCO2` (stereo not shown) [IUCT-0466, Ethyl N-(benzo[d][1,3]dioxol-5-ylsulfonyl)-N-(1-(3-fluoro-2'-methoxy-[1,1'-biphenyl]-4-yl)-2-oxopiperidin-3-yl)glycinate] belongs 16.7%.
The same measure, in the same setting: with `COc1ccccc1-c1ccc(N2CCCC(NS(=O)(=O)c3ccc(-c4ccccn4)s3)C2=O)c(F)c1` (stereo not shown) [IUCT-0463, N-(1-(3-fluoro-2'-methoxy-[1,1'-biphenyl]-4-yl)-2-oxopiperidin-3-yl)-5-(pyridin-2-yl)thiophene-2-sulfonamide] the figure was 15.8%.
